Reference: PubChem BioAssay (NCI)
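Compound exposure: 48 hours, 5 concentrations, 96-well plates. At the GI50, growth is halved. Definition used: TGI = concentration required for complete inhibition of growth.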

Key:
Assay in all cases: inhibition of tumour cell growth, NCI panel, 48 h
786-0 renal = system: 786-0 renal
A498 renal = system: A498 renal
A549 NSCLC = system: A549 NSCLC
ACHN renal = system: ACHN renal
BT-549 breast = system: BT-549 breast
CAKI-1 renal = system: CAKI-1 renal
CCRF-CEM leukemia = system: CCRF-CEM leukemia
COLO 205 colon = system: COLO 205 colon
DU-145 prostate = system: DU-145 prostate
HCC-2998 colon = system: HCC-2998 colon
HCT-116 colon = system: HCT-116 colon
HCT-15 colon = system: HCT-15 colon
HL-60(TB) leukemia = system: HL-60(TB) leukemia
HOP-62 NSCLC = system: HOP-62 NSCLC
HOP-92 NSCLC = system: HOP-92 NSCLC
HS 578T breast = system: HS 578T breast
HT29 colon = system: HT29 colon
IGROV1 ovarian = system: IGROV1 ovarian
K-562 leukemia = system: K-562 leukemia
KM12 colon = system: KM12 colon
LOX IMVI melanoma = system: LOX IMVI melanoma
M14 melanoma = system: M14 melanoma
MALME-3M melanoma = system: MALME-3M melanoma
MCF7 breast = system: MCF7 breast
MDA-MB-231 breast = system: MDA-MB-231 breast
MDA-MB-435 = system: MDA-MB-435
MOLT-4 leukemia = system: MOLT-4 leukemia
NCI-H226 lung = system: NCI-H226 lung
NCI-H23 lung = system: NCI-H23 lung
NCI-H460 lung = system: NCI-H460 lung
NCI-H522 lung = system: NCI-H522 lung
NCI/ADR-RES ovarian = system: NCI/ADR-RES ovarian
OVCAR-3 ovarian = system: OVCAR-3 ovarian
OVCAR-4 ovarian = system: OVCAR-4 ovarian
OVCAR-5 ovarian = system: OVCAR-5 ovarian
OVCAR-8 ovarian = system: OVCAR-8 ovarian
PC-3 prostate = system: PC-3 prostate
RPMI-8226 leukemia = system: RPMI-8226 leukemia
RXF 393 renal = system: RXF 393 renal
SF-268 CNS = system: SF-268 CNS
SF-295 CNS = system: SF-295 CNS
SF-539 CNS = system: SF-539 CNS
SK-MEL-2 melanoma = system: SK-MEL-2 melanoma
SK-MEL-28 melanoma = system: SK-MEL-28 melanoma
SK-MEL-5 melanoma = system: SK-MEL-5 melanoma
SK-OV-3 ovarian = system: SK-OV-3 ovarian
SN12C renal = system: SN12C renal
SNB-19 CNS = system: SNB-19 CNS
SNB-75 CNS = system: SNB-75 CNS
SR leukemia = system: SR leukemia
SW-620 colon = system: SW-620 colon
T-47D breast = system: T-47D breast
TK-10 renal = system: TK-10 renal
U251 CNS = system: U251 CNS
UACC-257 melanoma = system: UACC-257 melanoma
UACC-62 melanoma = system: UACC-62 melanoma
UO-31 renal = system: UO-31 renal

What does the source list for `CC1(C)N=C(N)N=C(N)N1c1ccc(CCCCc2ccc(Cl)cc2S(=O)(=O)F)c(Cl)c1`?
GI50 (786-0 renal): 0.428 µM; TGI (786-0 renal): 8.08 µM; GI50 (A498 renal): 3.19 µM; TGI (A498 renal): 18.9 µM; GI50 (A549 NSCLC): 0.388 µM; TGI (A549 NSCLC): 13.9 µM; GI50 (ACHN renal): 2.62 µM; TGI (ACHN renal): 17.6 µM; GI50 (BT-549 breast): 2.64 µM; TGI (BT-549 breast): 24.3 µM; GI50 (CAKI-1 renal): 2.04 µM; TGI (CAKI-1 renal): 18.2 µM; GI50 (CCRF-CEM leukemia): 0.372 µM; TGI (CCRF-CEM leukemia): 8.16 µM; GI50 (COLO 205 colon): 0.522 µM; TGI (COLO 205 colon): 2.53 µM; GI50 (DU-145 prostate): 0.558 µM; TGI (DU-145 prostate): 15.8 µM; GI50 (HCC-2998 colon): 1.15 µM; TGI (HCC-2998 colon): 21.2 µM; GI50 (HCT-116 colon): 0.346 µM; TGI (HCT-116 colon): > 38.3 µM; GI50 (HCT-15 colon): 0.464 µM; TGI (HCT-15 colon): > 51.3 µM; GI50 (HL-60(TB) leukemia): 0.107 µM; TGI (HL-60(TB) leukemia): 3.26 µM; GI50 (HOP-62 NSCLC): 0.63 µM; TGI (HOP-62 NSCLC): 12.7 µM; GI50 (HOP-92 NSCLC): 1.32 µM; TGI (HOP-92 NSCLC): 12.6 µM; GI50 (HS 578T breast): 4.05 µM; TGI (HS 578T breast): 30.9 µM; GI50 (HT29 colon): 0.374 µM; TGI (HT29 colon): 14.5 µM; GI50 (IGROV1 ovarian): 0.192 µM; TGI (IGROV1 ovarian): 21 µM; GI50 (K-562 leukemia): 0.073 µM; TGI (K-562 leukemia): 13.8 µM; GI50 (KM12 colon): 0.551 µM; TGI (KM12 colon): 14.4 µM; GI50 (LOX IMVI melanoma): 0.242 µM; TGI (LOX IMVI melanoma): 13.4 µM; GI50 (M14 melanoma): 0.421 µM; TGI (M14 melanoma): 17.8 µM; GI50 (MALME-3M melanoma): 1.65 µM; TGI (MALME-3M melanoma): 14.9 µM; GI50 (MCF7 breast): 0.327 µM; TGI (MCF7 breast): 9.49 µM; GI50 (MDA-MB-231 breast): 0.993 µM; TGI (MDA-MB-231 breast): 11.4 µM; GI50 (MDA-MB-435): 0.474 µM; TGI (MDA-MB-435): 16.1 µM; GI50 (MOLT-4 leukemia): 0.436 µM; TGI (MOLT-4 leukemia): 15.5 µM; GI50 (NCI-H226 lung): 1.23 µM; TGI (NCI-H226 lung): 29.2 µM; GI50 (NCI-H23 lung): 0.537 µM; TGI (NCI-H23 lung): 18.5 µM; GI50 (NCI-H460 lung): 0.117 µM; TGI (NCI-H460 lung): 13.5 µM; GI50 (NCI-H522 lung): 0.53 µM; TGI (NCI-H522 lung): 13.4 µM; GI50 (NCI/ADR-RES ovarian): 5.28 µM; TGI (NCI/ADR-RES ovarian): > 100 µM; GI50 (OVCAR-3 ovarian): 0.762 µM; TGI (OVCAR-3 ovarian): 12.2 µM; GI50 (OVCAR-4 ovarian): 3.11 µM; TGI (OVCAR-4 ovarian): 19.2 µM; GI50 (OVCAR-5 ovarian): 0.666 µM; TGI (OVCAR-5 ovarian): 22.8 µM; GI50 (OVCAR-8 ovarian): 0.499 µM; TGI (OVCAR-8 ovarian): 16.8 µM; GI50 (PC-3 prostate): 0.323 µM; TGI (PC-3 prostate): 16.7 µM; GI50 (RPMI-8226 leukemia): 0.562 µM; TGI (RPMI-8226 leukemia): 13.2 µM; GI50 (RXF 393 renal): 1.26 µM; TGI (RXF 393 renal): 20.4 µM; GI50 (SF-268 CNS): 0.493 µM; TGI (SF-268 CNS): 17.7 µM; GI50 (SF-295 CNS): 0.409 µM; TGI (SF-295 CNS): 12.8 µM; GI50 (SF-539 CNS): 0.539 µM; TGI (SF-539 CNS): 6.76 µM; GI50 (SK-MEL-2 melanoma): 3.07 µM; TGI (SK-MEL-2 melanoma): 25.1 µM; GI50 (SK-MEL-28 melanoma): 0.965 µM; TGI (SK-MEL-28 melanoma): 8.46 µM; GI50 (SK-MEL-5 melanoma): 0.552 µM; TGI (SK-MEL-5 melanoma): 12.6 µM; GI50 (SK-OV-3 ovarian): 4.3 µM; TGI (SK-OV-3 ovarian): 18.9 µM; GI50 (SN12C renal): 0.34 µM; TGI (SN12C renal): 14.7 µM; GI50 (SNB-19 CNS): 0.76 µM; TGI (SNB-19 CNS): 21.3 µM; GI50 (SNB-75 CNS): 1.39 µM; TGI (SNB-75 CNS): 23 µM; GI50 (SR leukemia): 0.271 µM; TGI (SR leukemia): 26.2 µM; GI50 (SW-620 colon): 0.234 µM; TGI (SW-620 colon): 14.1 µM; GI50 (T-47D breast): 1.87 µM; TGI (T-47D breast): 7.56 µM; GI50 (TK-10 renal): 5.82 µM; TGI (TK-10 renal): 25.7 µM; GI50 (U251 CNS): 0.291 µM; TGI (U251 CNS): 15.4 µM; GI50 (UACC-257 melanoma): 0.808 µM; TGI (UACC-257 melanoma): 17 µM; GI50 (UACC-62 melanoma): 0.344 µM; TGI (UACC-62 melanoma): 14.3 µM; GI50 (UO-31 renal): 6.22 µM; TGI (UO-31 renal): 23.6 µM
